# In patent US20240180880A1, “METHODS OF USING EHMT2 INHIBITORS IN TREATING OR PREVENTING BLOOD DISORDERS” (Epizyme, Inc., priority 2017, published 2024):
# Like-named read-outs stand apart in the source and are kept apart here.
# Tested on: 284 cell lines
# Assay: cells
# Description: A screen of 284 cell lines to assess the antiproliferative effect of EHMT2 inhibition was conducted by treating cell lines in 384-well format with a half-log step dilutions of Compound 205 over 10 concentrations with a maximum concentration of 0.1% v/v DMSO. Cells were plated on Day 0 and treated with compound on Day 1. Culture medium was replaced on day 7 and cells redosed. After 10-day incubation, cells were fixed and stained with nuclear dye. Automated fluorescence microscopy was carried out using a Molecular Devices ImageXpress Micro XL high-content imager, and images were collected with a 4× objective. 16-bit TIFF images were acquired and analyzed with MetaXpress 5.1.0.41 software. Cell proliferation was measured by the fluorescence intensity of the incorporated nuclear dye. Cell count IC50 is the test compound concentration at 50% of maximal response of the untreated control.
smiles,measurement,setting,value
CNc1cc(C)nc(Nc2ccc(OC)c(OCCCN3CCCC3)c2)n1 [Compound 205],IC50,"BM-1604, read-out: Cell Count IC50, BM-1604, Prostate",> 10 µM
same,IC50,"C32TG, read-out: Cell Count IC50, C32TG, Skin, Melanoma",1 to 10 µM
same,IC50,"CEM/C1, read-out: Cell Count IC50, CEM-C1, Hematopoietic, Leukemia",> 10 µM
same,IC50,"CML-T1, read-out: Cell Count IC50, CML-T1, Hematopoietic, Leukemia",1 to 10 µM
same,IC50,"D341 Med, read-out: Cell Count IC50, D341 Med, Central Nervous System, Medulloblastoma",1 to 10 µM
same,IC50,"HUH-6-clone5, read-out: Cell Count IC50, HUH-6 Clone 5, Liver",1 to 10 µM
same,IC50,"Homo sapiens, 22Rv1, read-out: Cell Count IC50, 22Rv1, Prostate",1 to 10 µM
same,IC50,"Homo sapiens, 639-V, read-out: Cell Count IC50, 639-V, Bladder",> 10 µM
same,IC50,"Homo sapiens, 647-V, read-out: Cell Count IC50, 647-V, Bladder",1 to 10 µM
same,IC50,"Homo sapiens, 769-P, read-out: Cell Count IC50, 769-P, Kidney",1 to 10 µM
same,IC50,"Homo sapiens, 786-0, read-out: Cell Count IC50, 786-O, Kidney",> 10 µM
same,IC50,"Homo sapiens, A101D, read-out: Cell Count IC50",1 to 10 µM
same,IC50,"Homo sapiens, A 172, read-out: Cell Count IC50, A172, Central Nervous System, Glioma",1 to 10 µM
same,IC50,"Homo sapiens, A204, read-out: Cell Count IC50, A204, Soft & Connective Tissue, Sarcoma",0.01 to 0.1 µM
same,IC50,"Homo sapiens, A253, read-out: Cell Count IC50, A-253, Head and Neck",> 10 µM
same,IC50,"Homo sapiens, A498, read-out: Cell Count IC50, A498, Kidney",1 to 10 µM
same,IC50,"Homo sapiens, A549, read-out: Cell Count IC50, A549, Lung, NSCLC",> 10 µM
same,IC50,"Homo sapiens, A673, read-out: Cell Count IC50, A-673, Soft & Connective Tissue, Sarcoma",> 10 µM
same,IC50,"Homo sapiens, A704, read-out: Cell Count IC50, A-704, Kidney",1 to 10 µM
same,IC50,"Homo sapiens, A2058, read-out: Cell Count IC50, A2058, Skin, Melanoma",1 to 10 µM
same,IC50,"Homo sapiens, A-375, read-out: Cell Count IC50, A375, Skin, Melanoma",1 to 10 µM
same,IC50,"Homo sapiens, A-427, read-out: Cell Count IC50, A427, Lung, NSCLC",1 to 10 µM
same,IC50,"Homo sapiens, A-431, read-out: Cell Count IC50, A431, Skin, Head and Neck",1 to 10 µM
same,IC50,"Homo sapiens, ACHN, read-out: Cell Count IC50, ACHN, Kidney",1 to 10 µM
same,IC50,"Homo sapiens, AN3-CA, read-out: Cell Count IC50, AN3 CA, Female GU, Uterus",> 10 µM
same,IC50,"Homo sapiens, ARH-77, read-out: Cell Count IC50, ARH-77, Hematopoietic, Myeloma",1 to 10 µM
same,IC50,"Homo sapiens, ASPC1, read-out: Cell Count IC50, AsPC-1, Pancreas",1 to 10 µM
same,IC50,"Homo sapiens, BE(2)-C, read-out: Cell Count IC50, BE(2)C, Central Nervous System, Neuroblastoma",> 10 µM
same,IC50,"Homo sapiens, BFTC-905, read-out: Cell Count IC50, BFTC-905, Bladder",0.01 to 0.1 µM
same,IC50,"Homo sapiens, BHT-101, read-out: Cell Count IC50, BHT-101, Endocrine, Thyroid",1 to 10 µM
same,IC50,"Homo sapiens, BPH-1, read-out: Cell Count IC50, BPH1, Prostate",> 10 µM
same,IC50,"Homo sapiens, BT-20, read-out: Cell Count IC50, BT20, Breast",> 10 µM
same,IC50,"Homo sapiens, BT-474, read-out: Cell Count IC50, BT474, Breast",1 to 10 µM
same,IC50,"Homo sapiens, BT-549, read-out: Cell Count IC50, BT-549, Breast",> 10 µM
same,IC50,"Homo sapiens, BV-173, read-out: Cell Count IC50, BV-173, Hematopoietic, Leukemia",1 to 10 µM
same,IC50,"Homo sapiens, BXPC-3, read-out: Cell Count IC50, BxPC-3, Pancreas",1 to 10 µM
same,IC50,"Homo sapiens, BeWo, read-out: Cell Count IC50, BeWo, Placenta",> 10 µM
same,IC50,"Homo sapiens, C-4-II, read-out: Cell Count IC50, C-4 II, Female GU, Cervix",> 10 µM
same,IC50,"Homo sapiens, C-33-A, read-out: Cell Count IC50, C-33A, Female GU, Cervix",> 10 µM
same,IC50,"Homo sapiens, CA46, read-out: Cell Count IC50, CA46, Hematopoietic, Lymphoma",1 to 10 µM
same,IC50,"Homo sapiens, CAKI-1, read-out: Cell Count IC50, Caki-1, Kidney",1 to 10 µM
same,IC50,"Homo sapiens, CAKI-2, read-out: Cell Count IC50, Caki-2, Kidney",1 to 10 µM
same,IC50,"Homo sapiens, CAL-27, read-out: Cell Count IC50, Cal 27, Head and Neck",1 to 10 µM
same,IC50,"Homo sapiens, CAL-62, read-out: Cell Count IC50, CAL-62, Endocrine, Thyroid",> 10 µM
same,IC50,"Homo sapiens, CAMA-1, read-out: Cell Count IC50, CAMA-1, Breast",1 to 10 µM
same,IC50,"Homo sapiens, CAPAN-1, read-out: Cell Count IC50, Capan-1, Pancreas",> 10 µM
same,IC50,"Homo sapiens, CCF-STTG1, read-out: Cell Count IC50, CCF-STTG1, Central Nervous System, Glioma",1 to 10 µM
same,IC50,"Homo sapiens, CCRF-CEM, read-out: Cell Count IC50, CCRFCEM, Hematopoietic, Leukemia",> 10 µM
same,IC50,"Homo sapiens, CFPAC-1, read-out: Cell Count IC50, CFPAC-1, Pancreas",> 10 µM
same,IC50,"Homo sapiens, CGTH-W-1, read-out: Cell Count IC50, CGTH-W-1, Endocrine, Thyroid",> 10 µM
same,IC50,"Homo sapiens, CHL-1, read-out: Cell Count IC50, CHL-1, Skin, Melanoma",> 10 µM
same,IC50,"Homo sapiens, CHP-212, read-out: Cell Count IC50, CHP-212, Central Nervous System, Neuroblastoma",0.1 to 1 µM
same,IC50,"Homo sapiens, COLO 201, read-out: Cell Count IC50, Colo 201, Colon",1 to 10 µM
same,IC50,"Homo sapiens, COLO 205, read-out: Cell Count IC50, Colo 205, Colon",1 to 10 µM
same,IC50,"Homo sapiens, COLO 320DM, read-out: Cell Count IC50, Colo 320DM, Colon",> 10 µM
same,IC50,"Homo sapiens, COLO-320-HSR, read-out: Cell Count IC50, Colo 320 HSR, Colon",> 10 µM
same,IC50,"Homo sapiens, COLO-829, read-out: Cell Count IC50, COLO 829, Skin, Melanoma",1 to 10 µM
same,IC50,"Homo sapiens, COR-L23, read-out: Cell Count IC50, COR-L23, Lung, NSCLC",1 to 10 µM
same,IC50,"Homo sapiens, COR-L105, read-out: Cell Count IC50, COR-L105, Lung, NSCLC",1 to 10 µM
same,IC50,"Homo sapiens, Ca-Ski, read-out: Cell Count IC50, Ca Ski, Female GU, Cervix",0.1 to 1 µM
same,IC50,"Homo sapiens, Calu-1, read-out: Cell Count IC50, Calu1, Lung, NSCLC",> 10 µM
same,IC50,"Homo sapiens, Calu-6, read-out: Cell Count IC50, Calu6, Lung, NSCLC",> 10 µM
same,IC50,"Homo sapiens, Caov-3, read-out: Cell Count IC50, CaOV3, Female GU, Ovary",1 to 10 µM
same,IC50,"Homo sapiens, Capan-2, read-out: Cell Count IC50, Capan-2, Pancreas",> 10 µM
same,IC50,"Homo sapiens, ChaGo-K-1, read-out: Cell Count IC50, ChaGoK1, Lung, NSCLC",> 10 µM
same,IC50,"Homo sapiens, D283 Med, read-out: Cell Count IC50, D283 Med, Central Nervous System, Medulloblastoma",1 to 10 µM
same,IC50,"Homo sapiens, DBTRG-05MG, read-out: Cell Count IC50, DBTRG-05MG, Central Nervous System, Glioma",1 to 10 µM
same,IC50,"Homo sapiens, DLD-1, read-out: Cell Count IC50, DLD-1, Colon",> 10 µM
same,IC50,"Homo sapiens, DMS-53, read-out: Cell Count IC50, DMS53, Lung, SCLC",0.1 to 1 µM
same,IC50,"Homo sapiens, DMS-114, read-out: Cell Count IC50, DMS114, Lung, SCLC",1 to 10 µM
same,IC50,"Homo sapiens, DOHH-2, read-out: Cell Count IC50, DOHH-2, Hematopoietic, Lymphoma",1 to 10 µM
